Measured values published in patent US6525059B1, “Substituted pyrazoles as p38 kinase inhibitors” (G. D. Searle & Company, priority 1998, dated 2003).
Several values for one entry are separate records, joined by “and”; a condition that tells them apart may be missing. Equal entries are not always repeated. Structures can show the parent of a compound that is named as a salt. Where two headings read alike, the source gives them in different places.

How the values were obtained:
[1] = target: T1, human GST-p38 kinase alpha (Homo sapiens, UniProt Q16539); experiment: p38 kinase in vitro assay, second format, phosphorylation of EGFRP with 33P-ATP; assay type: biochemical; settings: read-out: p38α Kinase Assay IC50
T1 construct: The coding region of the human p38a cDNA was obtained by PCR-amplification from RNA isolated from the human monocyte cell line THP.1; made in house; host or cells: E. coli DH10B
Experimental: A second assay format was also employed that is based on p38 kinase alpha induced phosphorylation of EGFRP (epidermal growth factor receptor peptide, a 21 mer) in the presence of ^33P-ATP. Compounds were tested in 10 fold serial dilutions over the range of 100 μM to 0.001 μM in 10% DMSO. Each concentration of inhibitor was tested in triplicate. Compounds were evaluated in 50 μl reaction volumes in the presence of 25 mM Hepes pH 7.5, 10 mM magnesium acetate, 4% glycerol, 0.4% bovine serum albumin, 0.4 mM DTT, 50 μM unlabeled ATP, 25 μg EGFRP (200 μM), and 0.05 uCi gamma ^33P-ATP. Reactions were initiated by addition of 0.09 μg of activated, purified human GST-p38 kinase alpha. Activation was carried out using GST-MKK6 (5:1, p38: MKK6) for one hour at 30° C. in the presence of 50 μM ATP. Following incubation for 60 minutes at room temperature, the reaction was stopped by addition of 150 μl of AG 1×8 resin in 900 mM sodium formate buffer, pH 3.0 (1 volume resin to 2 volumes buffer). The mixture was mixed three times with pipetting and the resin was allowed to settle. A total of 50 μl of clarified solution head volume was transferred from the reaction wells to Microlite-2 plates. 150 μl of Microscint 40 was then added to each well of the Microlite plate, and the plate was sealed, mixed, and counted.

human TNF = experiment: TNF inhibition: human whole blood assay; assay type: cell-based; settings: Homo sapiens, LPS, read-out: TNF Inhibition-Human Whole Blood Assay
TNF-α = experiment: Rat assay: LPS-challenged rats, serum TNF-α by ELISA; assay type: in vivo; settings: Rattus norvegicus, po; for inhibition in vivo at 3 mg/kg: Table 8, dose 3.0 mg/kg; for inhibition in vivo at 3 mg/kg / inhibition in vivo at 5 mg/kg / inhibition in vivo at 1 mg/kg: read-out: Rat LPS Assay % Inhibition; for inhibition in vivo at 10 mg/kg: Table 8, dose 10.0 mg/kg

T1 sequence (Q16539 whole entry): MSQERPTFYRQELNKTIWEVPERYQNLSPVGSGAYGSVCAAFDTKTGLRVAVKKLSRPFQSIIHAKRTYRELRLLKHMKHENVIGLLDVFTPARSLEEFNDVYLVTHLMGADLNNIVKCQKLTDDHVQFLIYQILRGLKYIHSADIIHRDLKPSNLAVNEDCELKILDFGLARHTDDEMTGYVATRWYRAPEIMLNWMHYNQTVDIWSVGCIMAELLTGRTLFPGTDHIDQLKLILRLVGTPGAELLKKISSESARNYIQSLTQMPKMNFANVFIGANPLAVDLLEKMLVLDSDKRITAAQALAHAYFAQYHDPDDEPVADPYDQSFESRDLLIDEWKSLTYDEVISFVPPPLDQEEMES

SMILES	IC50 ([1]; Table 9, 10% DMSO)	IC50 (human TNF; Table 9, human whole blood)	inhibition in vivo at 20 mg/kg (TNF-α; Table 9, dose 20 mg/kg)	also measured
OC[C@H](Cc1ccccc1)Nc1cc(-c2c[nH]nc2-c2ccc(F)cc2)ccn1 [Example A-363, (βS)-β-[[4-[3-(4-fluorophenyl)-1H-pyrazol-4-yl]-2-pyridinyl]amino]benzene propanol]	1500 nM	25000 nM	6%	–
C#CCn1nc(N2CCNCC2)c(-c2ccncc2)c1-c1ccc(Cl)cc1 [Example A-318, 1-[5-(4-chlorophenyl)-4-(4-pyridinyl)-1-(2-propynyl)-1H-pyrazol-3-yl]piperazine, trihydrochloride monohydrate]	–	–	–	IC50 ([1]; Table 8, 10% DMSO): 580 nM and 370 nM and 600 nM; IC50 (human TNF; Table 8, human whole blood): 167 nM; inhibition in vivo at 3 mg/kg (TNF-α): 54%
CCN(CC)C1CCN(c2n[nH]c(-c3ccc(F)cc3)c2-c2ccncc2)CC1 [Example A-388, 1-[5-(4-fluorophenyl)-4-(4-pyridinyl)-1H-pyrazol-3-yl]-N,N-diethyl-4-piperidinamine, trihydrochloride]	210 nM	340 nM	97%	inhibition in vivo at 5 mg/kg (TNF-α; Table 9, dose 5 mg/kg): 67%
CCN(CC)CC(Nc1cc(-c2c[nH]nc2-c2ccc(F)cc2)ccn1)c1ccccc1 (stereo not shown) [Example A-353, N2,N2-diethyl-N1-[4-[3-(4-fluorophenyl)-1H-pyrazol-4-yl]-2-pyridinyl]-1-phenyl-1,2-ethanediamine]	37 nM	5300 nM	49%	–
CN1CCN(c2n[nH]c(-c3ccc(F)cc3)c2-c2ccncc2)CC1 [Example A-317, 1-[5-(4-fluorophenyl)-4-(4-pyridinyl)-1H-pyrazol-3-yl]-4-methylpiperazine, dihydrate]	–	–	–	IC50 ([1]; Table 8, 10% DMSO): 70 nM; IC50 (human TNF; Table 8, human whole blood): 450 nM; inhibition in vivo at 10 mg/kg (TNF-α): 69%
CC(C)C(CO)Nc1cc(-c2c[nH]nc2-c2ccc(F)cc2)ccn1 (stereo not shown) [Example A-355, 2-[[4-[3-(4-fluorophenyl)-1H-pyrazol-4-yl]-2-pyridinyl]amino]-3-methyl-1-butanol]	50 nM	95 nM	–	inhibition in vivo at 26 mg/kg (TNF-α; Table 9, dose 26 mg/kg): 0%
CCOC(=O)N1CCN(c2[nH]nc(-c3ccccc3)c2-c2ccncc2)CC1 [Example A-371, ethyl 4-[5-phenyl-4-(4-pyridinyl)-1H-pyrazol-3-yl]-1-piperazinecarboxylate]	7900 nM	25000 nM	52%	–
CCN(CC)CCCC(C)Nc1cc(-c2c[nH]nc2-c2ccc(F)cc2)ccn1 (stereo not shown) [Example A-377, N1,N1-diethyl-N4-[4-[3-(4-fluorophenyl)-1H-pyrazol-4-yl]-2-pyridinyl]-1,4-pentanediamine]	4 nM and 1.9 nM	670 nM	84%	inhibition in vivo at 1 mg/kg (TNF-α; Table 9, dose 1 mg/kg): 32%; inhibition in vivo at 5 mg/kg (TNF-α; Table 9, dose 5 mg/kg): 67%
CCN(CC)CCCC(C)Nc1nccc(-c2c[nH]nc2-c2ccc(F)cc2)n1 (stereo not shown) [Example A-366, N1,N1-diethyl-N4-[4-[3-(4-fluorophenyl)-1H-pyrazol-4-yl]-2-pyrimidinyl]-1,4-pentanediamine]	41 nM and 60 nM and 40 nM	290 nM	92%	inhibition in vivo at 1 mg/kg (TNF-α; Table 9, dose 1 mg/kg): 6%; inhibition in vivo at 5 mg/kg (TNF-α; Table 9, dose 5 mg/kg): 45%
Fc1ccc(-c2[nH]nc(CN3CCNCC3)c2-c2ccncc2)cc1 [A-314, Step 2, 1-[[5-(4-fluorophenyl)-4-(4-pyridinyl)-1H-pyrazol-3-yl]methyl]-4-piperazine]	–	–	–	IC50 ([1]; Table 8, 10% DMSO): 32 nM; IC50 (human TNF; Table 8, human whole blood): 470 nM; inhibition in vivo at 1 mg/kg (TNF-α; Table 8, dose 1.0 mg/kg): 0%; inhibition in vivo at 5 mg/kg (TNF-α; Table 8, dose 5.0 mg/kg): 53%; inhibition in vivo at 20 mg/kg (TNF-α; Table 8, dose 20.0 mg/kg): 85%
CN1CCC(Nc2n[nH]c(-c3ccc(Cl)cc3)c2-c2ccncc2)CC1 [Example A-334, N-[5-(4-chlorophenyl)-4-(4-pyridinyl)-1H-pyrazol-3-yl]-1-methyl-4-piperidinamine]	–	–	–	IC50 ([1]; Table 8, 10% DMSO): 70 nM; IC50 (human TNF; Table 8, human whole blood): 220 nM; inhibition in vivo at 1 mg/kg (TNF-α; Table 8, dose 1.0 mg/kg): 36%; inhibition in vivo at 5 mg/kg (TNF-α; Table 8, dose 5.0 mg/kg): 57%; inhibition in vivo at 20 mg/kg (TNF-α; Table 8, dose 20.0 mg/kg): 95%
Clc1ccc(-c2[nH]nc(NC3CCNCC3)c2-c2ccncc2)cc1 [Example A-332, N-[5-(4-chlorophenyl)-4-(4-pyridinyl)-3H-pyrazol-3-yl]-4-piperidineamine, trihydrochloride, monohydrate]	–	–	–	IC50 ([1]; Table 8, 10% DMSO): 15 nM and < 100 nM; IC50 (human TNF; Table 8, human whole blood): 450 nM; inhibition in vivo at 1 mg/kg (TNF-α; Table 8, dose 1.0 mg/kg): 33%; inhibition in vivo at 3 mg/kg (TNF-α): 26%; inhibition in vivo at 5 mg/kg (TNF-α; Table 8, dose 5.0 mg/kg): 25%; inhibition in vivo at 10 mg/kg (TNF-α): -85%
CC(C)C[C@@H](CO)Nc1cc(-c2c[nH]nc2-c2ccc(F)cc2)ccn1 [Example A-354, (2S)-2-[[4-[3-(4-fluorophenyl)-1H-pyrazol-4-yl]-2-pyridinyl]amino]-4-methyl-1-pentanol]	220 nM	25000 nM	0%	–
CCN(CC)CCCC(C)Nc1[nH]nc(-c2ccc(F)cc2)c1-c1ccncc1 (stereo not shown) [Example A-359, N1,N1,-diethyl-N4-[5-(4-fluorophenyl)-4-(4-pyridinyl)-1H-pyrazol-3-yl]-1,4-pentanediamine]	300 nM	1000 nM	70%	–
CCN(CC)CCNc1cc(-c2c[nH]nc2-c2ccc(F)cc2)ccn1 [Example A-374, N,N-diethyl-N′-[4-[3-(4-fluorophenyl)-1H-pyrazol-4-yl]-2-pyridinyl]-1,2-ethanediamine]	380 nM	310 nM	88%	inhibition in vivo at 1 mg/kg (TNF-α; Table 9, dose 1 mg/kg): 3%; inhibition in vivo at 5 mg/kg (TNF-α; Table 9, dose 5 mg/kg): 0%
C[C@@H](O)CNc1cc(-c2c[nH]nc2-c2ccc(F)cc2)ccn1 [Example A-368, (2R)-1-[[4-[3-(4-fluorophenyl)-1H-pyrazol-4-yl]-2-pyridinyl]amino]-2-propanol]	42 nM	660 nM	88%	inhibition in vivo at 1 mg/kg (TNF-α; Table 9, dose 1 mg/kg): 28%; inhibition in vivo at 5 mg/kg (TNF-α; Table 9, dose 5 mg/kg): 41%
NC1CCN(c2[nH]nc(-c3ccc(F)cc3)c2-c2ccncc2)CC1 [Example A-365, 1-[5-(4-fluorophenyl)-4-(4-pyridinyl)-1H-pyrazol-3-yl]-4-piperidinamine, trihydrochloride]	32 nM	57 nM	95%	inhibition in vivo at 1 mg/kg (TNF-α; Table 9, dose 1 mg/kg): 12%; inhibition in vivo at 5 mg/kg (TNF-α; Table 9, dose 5 mg/kg): 50%
Fc1ccc(-c2n[nH]cc2-c2ccnc(NCC3CCNCC3)c2)cc1 [Example A-351, 4-[3-(4-fluorophenyl)-1H-pyrazol-4-yl]-N-(4-piperidinylmethyl)-2-pyridinamine]	270 nM	490 nM	0%	–
OCC(Nc1cc(-c2c[nH]nc2-c2ccc(F)cc2)ccn1)c1ccccc1 (stereo not drawn) [Example A-376, (βR)-β-[[4-[3-(4-fluorophenyl)-1H-pyrazol-4-yl]-2-pyridinyl]amino]benzene ethanol]	32 nM	1000 nM	24%	–
Clc1ccc(-c2n[nH]c(OC3CCNCC3)c2-c2ccncc2)cc1 [Example A-442]	–	–	–	IC50 ([1]; Table 10, 10% DMSO, @ 1.0 hour): 22 nM; IC50 (human TNF; Table 10, human whole blood): 160 nM; inhibition in vivo at 1 mg/kg (TNF-α; Table 10, dose 1.0 mg/kg): 51%; inhibition in vivo at 5 mg/kg (TNF-α; Table 10, dose 5.0 mg/kg): 56%; inhibition in vivo at 20 mg/kg (TNF-α; Table 10, dose 20.0 mg/kg): 92%
CN(C)C1CCN(c2[nH]nc(-c3ccc(F)cc3)c2-c2ccncc2)CC1 [Example A-360, 1-[5-(4-fluorophenyl)-4-(4-pyridinyl)-1H-pyrazol-3-yl]-N,N-dimethyl-4-piperidinamine, trihydrochloride]	60 nM	500 nM	95%	inhibition in vivo at 1 mg/kg (TNF-α; Table 9, dose 1 mg/kg): 0%; inhibition in vivo at 5 mg/kg (TNF-α; Table 9, dose 5 mg/kg): 14%
Fc1ccc(-c2n[nH]c(N3CCC(N4CCCC4)CC3)c2-c2ccncc2)cc1 [Example A-357, 4-[3-(4-fluorophenyl)-5-(4-(1-pyrrolidinyl)-1-piperidinyl]-1H-pyrazol-4-yl]pyridine, trihydrochloride]	120 nM	250 nM	74%	–
Fc1ccc(-c2n[nH]c(N3CCSCC3)c2-c2ccncc2)cc1 [Example A-438]	–	–	–	IC50 ([1]; Table 10, 10% DMSO, @ 1.0 hour): 560 nM; IC50 (human TNF; Table 10, human whole blood): > 25000 nM; inhibition in vivo at 20 mg/kg (TNF-α; Table 10, dose 20.0 mg/kg): 49%
CCOC(=O)N1CCC(Nc2cc(-c3c[nH]nc3-c3ccc(F)cc3)ccn2)CC1 [Example A-356, ethyl 4-[[4-[3-(4-fluorophenyl)-1H-pyrazol-4-yl]-2-pyridinyl]amino]-1-piperidinecarboxylate]	< 10 nM	5300 nM	73%	–
